Test results taken from patent US20240390372A1, “METHODS OF TREATING HAIR-LOSS DISORDERS WITH TYK2 INHIBITORS” (Bristol-Myers Squibb Company, priority 2021, published 2024).

How the values were obtained:
[1] = test system: microdissected hair follicles from human scalp; assay: Prophylactic assay: pre-treatment before IL-12+IL-18, MHC class I and II levels; type: cell-based
Experimental: To address the role of IL-12 in AA pathobiology and its potential as a therapeutic target, microdissected hair follicles from human scalp were cultured in the presence of IL-12 (3 ng/mL) and IL-18 (20 ng/mL) and in the presence or absence of a selective allosteric TYK2 inhibitor, the compound of Formula (II) (300 nM). IFNγ (75 UI/mL) was used as a positive control to induce immune privilege (IP) collapse, and tofacitinib was used as a positive control for blocking IFNγ signaling. Hair follicle immune privilege (HF-IP) was assessed by quantitative immunohistomorphometry of MHC class I, of MHC class II, and of MHC class chain-related protein A and MHC class chain-related protein B (MICA/B).
Hair follicles were pre-treated with the compound having the structure of Formula (II) (denoted “BMS” in the figures), followed by the addition of IL-12 and IL-18, in a prophylactic assay. Tofacitinib was used as a control, for comparison. For this assay, each group included 19-40 hair follicles, obtained from 3-5 independent healthy donors. The groups were treated as follows: with vehicle, with the compound of Formula (II) (300 nM), or with tofacitinib (400 nM) for 5-6 days; on day 2 of culture, vehicle, or IL-12 (3 ng/ml) and IL-18 (20 ng/mL) were added. Levels of MHC class I and of MHC class II were assessed as described above, and FIGS. 17-22 provide the results. The graphs in FIGS. 17-20 show mean±SEM and results of the Dunn's multiple comparison test (*p<0.05; **p<0.01; ****p<0.0001). FIGS. 21 and 22 show staining of MHC-I and MHC-II, respectively, in hair follicles (scale bar=100 μm).

[2] = test system: microdissected hair follicles from human scalp; assay: Prophylactic assay: pre-treatment before IL-12+IL-18, CD3+ T cell and CD56+ NK cell quantification; type: cell-based; conditions: pre-treatment 300 nM, 5-6 days; IL-12+IL-18 added on day 2
Experimental: (§1) Resident immune cell populations were assessed by quantification of CD3-positive cells and of CD56-positive cells. Gene expression of treated hair follicles was assessed using whole transcriptome analysis. IFNγ production was quantified by enzyme-linked immunosorbent assay (R&D systems). IL-12RB2-expressing cells were evaluated in healthy donors, acute AA patients, and chronic AA patients using immunohistomorphometry.
The effect of pre-treatment with the compound of Formula (II) on T cell and NK cell expansion following IL-12 and IL-18 stimulation was also examined. 22-40 hair follicles, obtained from 4-5 independent healthy donors, were incubated with vehicle, with the compound of Formula (II) (300 nM), or with tofacitinib (400 nM) for 5-6 days. On day 2 of culture, vehicle, or IL-12 (3 ng/ml) and IL-18 (20 ng/mL) were added. Resident immune cell populations were assessed by quantification of CD3-positive cells and of CD56-positive cells. FIGS. 23-27 provide the results. The graphs in FIGS. 23-26 show mean±SEM and results of the Dunn's multiple comparison test (*p<0.05; ***p<0.001). […] Pre-treatment with the compound of Formula (II) prevented an elevation of CD3+ T cell frequency and of CD56+ NK cell frequency, consistent with the results above.

[3] = test system: microdissected hair follicles from human scalp; assay: Therapeutic assay: compound added after IL-12+IL-18-induced immune privilege collapse, MHC class I and II expression; type: cell-based
Text: The above assays were adapted to investigate whether TYK2 inhibition can inhibit ongoing IL-12+IL-18-mediated hair follicle immune privilege collapse, and thus whether TYK2 inhibition is a viable therapeutic strategy for treating alopecia areata. In these assays, immune privilege collapse was first induced by treatment with IL-12+IL-18, followed by the addition of the compound of Formula (II).
To assess whether TYK2 inhibition could restore hair follicle immune privilege, 21-31 hair follicles, obtained from 3-4 independent healthy donors, were cultured with vehicle, or with IL-12 (3 ng/mL) and IL-18 (20 ng/ml), for 5-6 days. On day 2 of culture, the compound of Formula (II) (300 nM) or tofacitinib (400 nM) was added until day 5-6. MHC class I expression and MHC class II expression were measured, as was done previously. The graphs in FIGS. 28-31 show mean±SEM, with p-values from the Dunn's multiple comparison test (*p<0.05; **p<0.01; ***p<0.001; ****p<0.0001). FIGS. 32 and 33 show staining of MHC-I and MHC-II, respectively, in hair follicles (scale bar=100 μm). […] As discussed above, MHC class I and II are markers of immune privilege collapse.

[4] = test system: microdissected hair follicles from human scalp; assay: Therapeutic assay: compound added after IL-12+IL-18, T cell and NK cell expansion (CD3/CD56 immunostaining); type: cell-based; conditions: 300 nM added on day 2 of IL-12+IL-18 culture
Experimental: To assess whether TYK2 inhibition can block ongoing T cell and NK cell expansion, hair follicles were first incubated with vehicle, or with IL-12+IL-18, followed by the addition of the compound of Formula (II) or of tofacitinib. Specifically, 24-33 hair follicles, obtained from 3-4 independent healthy donors, were treated with vehicle, or with IL-12 (3 ng/ml) and IL-18 (20 ng/ml), for 5-6 days. On day 2 of culture, the compound of Formula (II) (300 nM) or tofacitinib (400 nM) was added. T cell expansion and NK cell expansion were assessed by immunostaining for CD3 (T cells) or CD56 (NK cells). The graphs in FIGS. 34-37 show mean±SEM, with p-values from the Dunn's multiple comparison test (*p<0.05; **p<0.01; ***p<0.001; ****p<0.0001). FIG. 38 provides images of staining for CD3 and CD56 in hair follicles (scale bar=50 μm).

[5] = test system: ex vivo cultured hair follicles; assay: IFNγ secretion into the medium of ex vivo cultured hair follicles treated with IL-12+IL-18 (ELISA; prophylactic and therapeutic assays); type: cell-based, human; conditions: for IFNγ release into the culture medium: hair follicles treated with IL-12+IL-18, assay format not given
Experimental: as §1
The effect of TYK2 inhibition on IFNγ production by hair follicles was also assessed. Specifically, two assays were performed to examine how TYK2 inhibition affects IFNγ secretion into the medium of ex vivo cultured hair follicles treated with IL-12+IL-18. In the prophylactic assay, hair follicles were pre-treated with the compound of Formula (II) or with tofacitinib, and then were cultured in the presence of IL-12+IL-18, after which IFNγ in the culture medium was measured. In the therapeutic assay, hair follicles were initially treated with IL-12±IL-18; then the compound of Formula (II) or tofacitinib was added and the culture continued, after which IFNγ in the culture medium was measured. The data in FIGS. 39 and 40 are based on the amount of IFNγ measured in pooled culture medium from n=8 hair follicles per group, obtained from 1-2 healthy donors. The graphs show mean±SEM from technical duplicates.

[6] = 300 nM for 5-6 days, IL-12 3 ng/mL and IL-18 20 ng/mL added on day 2
[7] = 300 nM added on day 2 until day 5-6 of IL-12+IL-18 culture
[8] = 400 nM added on day 2 until day 5-6 of IL-12+IL-18 culture

| Compound | IL-12+IL-18-mediated upregulation of MHC class I in the outer root sheath [1, 6] | IL-12+IL-18-mediated upregulation of MHC class II in the outer root sheath [1, 6] | effect on MHC class I and II upregulation compared with tofacitinib ([1]; compound 300 nM versus tofacitinib 400 nM, prophylactic) | IL-12 and IL-18-induced immune privilege collapse of hair follicles ([1]; pre-treatment, 300 nM) | elevation of CD3+ T cell frequency [2] | elevation of CD56+ NK cell frequency [2] | IL-12+IL-18-induced expression of MHC class I [3, 7] | IL-12+IL-18-induced expression of MHC class II [3, 7] | NK cell expansion induced by IL-12 and IL-18 (hair follicle epithelium and mesenchyme) [4] | T cell expansion induced by IL-12 and IL-18 (hair follicle epithelium and mesenchyme) [4] | IFNγ release into the culture medium [5] | IL-12+IL-18-induced expression of MHC class I [3, 8] | IL-12+IL-18-induced expression of MHC class II [3, 8] | restoration of IFNγ secretion to baseline ([5]; therapeutic assay: IL-12+IL-18 first, then compound added) |
| --- | --- | --- | --- | --- | --- | --- | --- | --- | --- | --- | --- | --- | --- | --- |
| [2H]C([2H])([2H])NC(=O)c1cnc(NC(=O)C2CC2)cc1Nc1cccc(-c2ncc(F)cn2)c1OC [compound of Formula (II)] | prevented | prevented | greater than the effect observed with tofacitinib | prevented | prevented | prevented | significantly reduced | significantly reduced | reversed | reversed | inhibiting IFNγ release |  |  |  |
| C[C@@H]1CCN(C(=O)CC#N)C[C@@H]1N(C)c1ncnc2[nH]ccc12 [tofacitinib, reference compound] |  |  |  |  |  |  |  |  |  |  | did not decrease | significantly reduced | significantly reduced | such restoration was not observed |
